This is an account of results in patent publication US20250163061A1 (Bala Therapeutics, Inc., priority 2021, published 2025).

Molecules are shown by their SMILES.

What all share (type): cell-based
The test system of one series is MV4-11. As to the kind of experiment: MV4-11 cellular growth inhibition assay (CellTiter-Glo). The following applies: Homo sapiens, 168 h, MV4-11 cells, 7 days of incubation. The protocol: (§1) HEK293 (Institute of Cytology Russian Academy of Science), MV4-11 (ATCC, CRL-9591), MOLM-13 (AcceGen, ABC-TC517S) were seeded at a density of 500 cells per well (HEK293) and 2000 cells per well (MV4-11, MOLM-13) in a 384-well clear bottom plate (Greiner Cat #781090) in 45 μl total volume of DMEM (PanEco, Cat #C420, Russia) or RPMI (PanEco, Cat #C330, Russia) with 10% FBS (HyClone Cat #SV30160.03). HEK293 were allowed to adhere overnight at 37° C., 5% CO2. 500× compounds solutions in DMSO (Sigma Cat #D2650) were prepared into Cmpnds plate (Diamond Well Plate, Axigen, Cat #P-384-120SQ-C-S) and DMSO only control was included. 1 μl of 500× compounds (Cmpnds plate) was added to 49 μl of culture medium into Dilution plate (Diamond Well Plate, Axigen, Cat #P-384-120SQ-C-S), mixed and then 5 μl of 10× compounds solutions were transferred to cells followed by centrifugation at 100 g for 1 min. Final DMSO concentration was 0.2%. After 3 days of incubation, 10 μl of 1× compounds were added to cells. After 7 days of incubation, 12 μl of CellTiter-Glo (Promega, CAT #G7572) were added to the cells, plate was centrifuged at 100 g for 1 min and luminescence signal was measured using Microplate Reader (CLARIOStar).

In a further series the test system is MOLM-13. In words: MOLM-13 cellular growth inhibition assay (CellTiter-Glo). The settings on record: Homo sapiens, 168 h, MOLM-13 cells, 7 days of incubation. The protocol:
as §1
For orientation: Cellular ATP, detected with luciferase, serves as a proxy for viable cell number.

Series [1] is described as follows: HEK293 cellular growth inhibition assay (CellTiter-Glo). The settings on record: human, HEK293 cells, 7 days of incubation. The protocol:
as §1

As usually defined, the CC50 is the concentration that lowers cell viability or growth by half. The low end stands for harm at low concentration, the high end for better tolerance by the cells. For the compound `CCS(=O)(=O)N1CCN([C@H](C)Cn2c(C#N)cc3c(C)c(CN4CCC5(CC4)CN(c4ncnc6ccc(CC(F)(F)F)cc46)C5)ccc32)C[C@@H]1C` [Compound 25, 1-[(2R)-2-[(3S)-4-ethylsulfonyl-3-methyl-piperazin-1-yl]propyl]-4-methyl-5-[[2-[6-(2,2,2-trifluoroethyl)quinazolin-4-yl]-2,7-diazaspiro[3.5]nonan-7-yl]methyl]indole-2-carbonitrile], the CC50 was 100 to 500 nM in the series with MV4-11 and 500 to 1000 nM in the series with MOLM-13. This compound showed a CC50 at 7 days in series [1] of 2000 to 5000 nM.

`Cc1c(CN2CCC3(CC2)CN(c2ncnc4ccc(CC(F)(F)F)cc24)C3)ccc2c1cc(C#N)n2C[C@H]1CNC(=O)CO1` [Compound 101, 4-Methyl-1-{[(2R)-5-oxomorpholin-2-yl]methyl}-5-({2-[6-(2,2,2-trifluoroethyl)quinazolin-4-yl]-2,7-diazaspiro[3.5]non-7-yl}methyl)-1H-indole-2-carbonitrile]: the CC50 in the series with MV4-11 lay in the range of 100 to 500 nM; with MOLM-13 it was 1000 to 5000 nM. The CC50 at 7 days in series [1] was 2000 to 5000 nM.

On to `Cc1c(CN2CCC3(CC2)CN(c2ncnc4ccc(CC(F)(F)F)cc24)C3)ccc2c1cc(C#N)n2CC1CNC(=O)CO1` (stereo not drawn) [Compound 82, 4-Methyl-1-[(5-oxomorpholin-2-yl)methyl]-5-({2-[6-(2,2,2-trifluoroethyl)quinazolin-4-yl]-2,7-diazaspiro[3.5]non-7-yl}methyl)-1H-indole-2-carbonitrile], for which the results for the CC50 in the series with MV4-11 and in the series on MOLM-13 were not above 100 nM and 100 to 500 nM, respectively. Also, the CC50 at 7 days in series [1] lay within 2000 to 5000 nM.

On to `Cc1c(CN2CCC3(CC2)CN(c2ncnc4ccc(CC(F)(F)F)cc24)C3)ccc2c1cc(C#N)n2CC1CCNC(=O)C1` (stereo not drawn) [Compound 22, 4-Methyl-1-[(2-oxopiperidin-4-yl)methyl]-5-({2-[6-(2,2,2-trifluoroethyl)quinazolin-4-yl]-2,7-diazaspiro[3.5]non-7-yl}methyl)-1H-indole-2-carbonitrile], for which the CC50 lay within 100 to 500 nM in the series with MV4-11 and 500 to 1000 nM in the series with MOLM-13. The CC50 at 7 days in series [1] lay within 2000 to 5000 nM.

As for `Cc1c(CN2CCC3(CC2)CN(c2ncnc4ccc(CC(F)(F)F)cc24)C3)ccc2c1cc(C#N)n2Cc1ccc(=O)[nH]c1` [Compound 14, 4-Methyl-1-[(6-oxo-1,6-dihydropyridin-3-yl)methyl]-5-({2-[6-(2,2,2-trifluoroethyl)quinazolin-4-yl]-2,7-diazaspiro[3.5]non-7-yl}methyl)-1H-indole-2-carbonitrile], the CC50 in the series with MV4-11 and in the series on MOLM-13 was not above 100 nM each time. Moreover, in series [1], the CC50 at 7 days is not above 2000 nM.
